Like-named read-outs stand apart in the source and are kept apart here.
How the values were obtained:
[1] = target: hDOR (Homo sapiens, UniProt P41143); assay: Radioligand binding studies (Example 6) at hDOR
Experimental: (§1) For a primary screen of selected molecules, binding to μOR was assessed by measuring competition against the radioligand ^3H-diprenorphine (^3H-DPN). […] The reaction contained 40 fmol of μOR and was incubated in a buffer of 20 mM HEPES pH 7.5, 100 mM sodium chloride, and 0.1% bovine serum albumin for 1 hour at 25° C. To separate free from bound radioligand, reactions were rapidly filtered over Whatman GF/B filters with the aid of a Brandel harvester and ^3H-DPN counts were measured by liquid scintillation. […] Subsequently, the 8 compounds were tested in full dose-response for affinity at the μOR and the κOR by the National Institutes of Mental Health Psychoactive Drug Screen Program (PDSP), as were the affinities of the compounds at the μOR, δOR, κOR, and the nociception receptor.

[2] = target: T1, hMOR (Homo sapiens, UniProt P35372); assay: Radioligand binding studies (Example 6) at hMOR
T1 sequence (P35372 whole entry): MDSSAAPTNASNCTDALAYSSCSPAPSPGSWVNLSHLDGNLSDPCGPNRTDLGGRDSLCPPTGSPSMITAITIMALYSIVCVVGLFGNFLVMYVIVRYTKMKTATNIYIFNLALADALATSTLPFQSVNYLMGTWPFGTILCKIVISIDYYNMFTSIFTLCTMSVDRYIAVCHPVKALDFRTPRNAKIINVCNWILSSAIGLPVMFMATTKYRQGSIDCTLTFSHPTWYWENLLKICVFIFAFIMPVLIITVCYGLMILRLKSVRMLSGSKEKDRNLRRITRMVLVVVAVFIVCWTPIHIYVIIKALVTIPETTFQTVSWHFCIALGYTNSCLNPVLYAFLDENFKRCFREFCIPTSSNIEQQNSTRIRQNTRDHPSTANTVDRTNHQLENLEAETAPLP
Experimental: as §1

[3] = target: T2, hKOR (Homo sapiens, UniProt P41145); assay: Radioligand binding studies (Example 6) at hKOR
T2 sequence (P41145 whole entry): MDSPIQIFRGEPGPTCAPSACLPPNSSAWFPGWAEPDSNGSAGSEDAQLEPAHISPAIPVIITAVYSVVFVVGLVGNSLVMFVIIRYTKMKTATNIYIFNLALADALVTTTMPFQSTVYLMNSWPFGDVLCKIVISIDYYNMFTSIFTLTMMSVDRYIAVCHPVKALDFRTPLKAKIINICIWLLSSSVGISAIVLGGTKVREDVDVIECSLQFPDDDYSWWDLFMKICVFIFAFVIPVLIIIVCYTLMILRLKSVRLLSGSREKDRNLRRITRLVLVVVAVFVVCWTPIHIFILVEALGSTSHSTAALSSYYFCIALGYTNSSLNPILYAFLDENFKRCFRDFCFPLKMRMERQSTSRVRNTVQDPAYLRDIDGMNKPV
Experimental: as §1

[4] = target: T3, MM1 (MOR N127C) (Homo sapiens, UniProt P35372, N129C); assay: Receptor binding at MM1 (MOR N127C)
T3 construct: expressed in transfected cells; host or cells: HEK 293
T3 sequence (P35372 whole entry N129C): as the sequence (P35372 whole entry) above, with N129C counted along it

[5] = target: humanDOR (Homo sapiens, UniProt P41143); assay: Receptor binding with [3H]diprenorphine at human DOR
Sequence of humanDOR (P41143 whole entry): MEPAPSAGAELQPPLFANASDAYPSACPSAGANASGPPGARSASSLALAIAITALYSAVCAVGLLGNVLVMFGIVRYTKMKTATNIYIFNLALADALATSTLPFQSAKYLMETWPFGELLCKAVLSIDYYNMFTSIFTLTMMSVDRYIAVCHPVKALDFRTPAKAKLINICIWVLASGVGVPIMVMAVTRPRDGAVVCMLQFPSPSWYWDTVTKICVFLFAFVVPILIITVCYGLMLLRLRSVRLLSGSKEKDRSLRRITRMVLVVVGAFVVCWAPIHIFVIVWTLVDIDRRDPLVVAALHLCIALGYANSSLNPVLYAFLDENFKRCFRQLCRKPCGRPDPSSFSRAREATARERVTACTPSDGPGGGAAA

[6] = target: T1, hMOR; assay: Receptor binding with [3H]diprenorphine at hMOR
[7] = target: T2, hKOR; assay: Receptor binding with [3H]diprenorphine at hKOR
[8] = target: T4, κOR (Homo sapiens, UniProt P41145); assay: Radioligand binding at κOR (PDSP); details: for κOR Ki, given as percentage: <50% instead of a Ki
T4 construct: NIMH Psychoactive Drug Screening Program (PDSP)
T4 sequence (P41145 whole entry): as the sequence (P41145 whole entry) above

[9] = target: T5, μOR (Homo sapiens, UniProt P35372); assay: cell-based; type: cell-based; details: μOR Gi EC50 (μM), ND = not detectable under these experimental conditions
T5 sequence (P35372 whole entry): as the sequence (P35372 whole entry) above

[10] = target: T5, μOR; assay: biochemical; type: binding; set-up: expressed in transfected cells; host or cells: HEK293 membranes (Ki); Sf9 insect cell membranes (single-point screen); PDSP for analogs
Experimental: For a primary screen of selected molecules, binding to OR was assessed by measuring competition against the radioligand ^3H-diprenorphine (^3H-DPN). […] The reaction contained 40 fmol of μOR and was incubated in a buffer of 20 mM HEPES pH 7.5, 100 mM sodium chloride, and 0.1% bovine serum albumin for 1 hour at 25° C. To separate free from bound radioligand, reactions were rapidly filtered over Whatman GF/B filters with the aid of a Brandel harvester and ^3H-DPN counts were measured by liquid scintillation.

[11] = target: T6, hMOR + Gqi5 (Homo sapiens, UniProt P35372); assay: IP accumulation assay, hMOR + Gqi5; type: cell-based; details: % morphine
T6 construct: expressed in transfected cells
T6 sequence (P35372 whole entry): as above

[12] = (n) = number of independent experiments, read-out: binding affinity Ki MM1 (MOR N127C)
[13] = PZM analogs, (n) = number of independent experiments, read-out: binding affinity Ki hDOR
[14] = PZM analogs, (n) = number of independent experiments, read-out: binding affinity Ki hMOR
[15] = PZM analogs, (n) = number of independent experiments, read-out: binding affinity Ki hKOR

Sequence of hDOR (P41143 whole entry): as the sequence (P41143 whole entry) above

C[C@@H](Cc1ccsc1)NC(=O)NC[C@@H]1Cc2ccc(O)cc2CN1C [DD118, 1-(((S)-7-hydroxy-2-methyl-1,2,3,4-tetrahydroisoquinolin-3-yl)methyl)-3-((S)-1-(thiophen-3-yl)propan-2-yl)urea]
Ki [1]: 150 nM | Ki [2]: 150 nM | Ki [3]: 110 nM

CN(C)[C@H](CNC(=O)NCCc1c[nH]nn1)Cc1ccc(O)cc1
Ki [4]: 630 nM | Ki [5]: 4700 nM | Ki [6]: 960 nM | Ki [7]: 1400 nM

COc1nc(C)cc(C)c1CNC(=O)NC[C@@H](Cc1ccccc1)N(C)C [compound 13]
Ki ([8]; κOR Ki (μM), analogs, full dose-response): 1.02 µM | EC50 [9]: 3.1 µM | Ki [10]: 550 nM

C[C@@H](Cc1ccsc1)NC(=O)NC[C@H](Cc1ccc(O)nc1)N(C)C
Ki [4, 12]: 3800 nM | Ki [5, 13]: > 20000 nM | Ki [6, 14]: 4600 nM | Ki [7, 15]: 12000 nM

CN(Cc1nnc(C2CC2)n1C)C(=O)NC[C@@H](Cc1ccccc1)N(C)C [compound 10]
κOR Ki, given as percentage [8]: <50% | Ki [10]: 4750 nM

C[C@@H](CN1C(=O)C=CC1=O)NC(=O)NC[C@H](Cc1ccc(O)cc1)N(C)C
Ki [4, 12]: 5.6 nM | Ki [5, 13]: 860 nM | Ki [6, 14]: 410 nM | Ki [7, 15]: 1200 nM

C[C@@H](Cc1ccsc1)Nc1c(NC[C@H](Cc2ccc(O)cc2)N(C)C)c(=O)c1=O [DD251, 3-(((S)-2-(dimethylamino)-3-(4-hydroxyphenyl)propyl)amino)-4-(((S)-1-(thiophen-3-yl)propan-2-yl)amino)cyclobut-3-ene-1,2-dione]
Ki [1]: 650 nM | Ki [2]: 33 nM | Ki [3]: 16 nM

CC(Cc1ccsc1)NC(=O)NCC(Cc1ccc(O)cc1)N(C)C (single isomer, unassigned) [BD 122LS]
hMOR + Gqi5 IP accumulation assay efficacy a [11]: a: 73%

CN(C)[C@H](CNC(=O)NCCN1C(=O)C=CC1=O)Cc1ccc(O)cc1
Ki [4, 12]: 3.7 nM | Ki [5, 13]: 450 nM | Ki [6, 14]: 240 nM | Ki [7, 15]: 600 nM

Cc1cccc(NC2CCN(C(=O)Nc3ccc(F)cc3F)CC2)n1 [compound 3]
Ki ([10]; molecules identified in the initial screen, read-out: μOR Ki): 13800 nM

CN(C)[C@@H](CNC(=O)NC[C@@H](O)c1cnn(C)c1)Cc1ccccc1 [compound 11]
κOR Ki, given as percentage [8]: <50% | Ki ([10]; analogs, full dose-response, read-out: μOR Ki): 1860 nM

CN(C)[C@H](CNC(=O)Cc1ccc([N+](=O)[O-])s1)Cc1ccccc1 [compound 4]
Ki [10]: 2300 nM

CC(Cc1ccsc1)NC(=O)NCC(Cc1ccc(O)cc1)N(C)C (single isomer, unassigned) [BD 122LR]
Ki ([5]; ± SD (two experiments) or SEM, (n) experiments, read-out: humanDOR [3H]dyprenorphine Ki): 88 nM | hMOR + Gqi5 IP accumulation assay efficacy a [11]: a: 17% | Ki ([7]; ± SD (two experiments) or SEM, (n) experiments, read-out: hKOR [3H]dyprenorphine Ki): 190 nM

CN(C)[C@H](CNC(=O)NCCCCN1C(=O)C=CC1=O)Cc1ccc(O)cc1
Ki [4, 12]: 5.9 nM | Ki [5, 13]: 4900 nM | Ki [6, 14]: 1000 nM | Ki [7, 15]: 760 nM

COc1ccc(C[C@@H](CNC(=O)N[C@@H](C)Cc2ccsc2)N(C)C)cc1 [DD222, 1-((S)-2-(dimethylamino)-3-(4-methoxyphenyl)propyl)-3-((S)-1-(thiophen-3-yl)propan-2-yl)urea]
Ki [1]: 5900 nM | Ki [2]: 390 nM | Ki [3]: 460 nM

CN(C)[C@H](CNc1nc(=O)cc(Cc2ccccc2)[nH]1)Cc1ccc(O)cc1 [DD258, (S)-6-benzyl-2-((2-(dimethylamino)-3-(4-hydroxyphenyl)propyl)amino)pyrimidin-4(1H)-one]
Ki [1]: 390 nM | Ki [2]: 290 nM | Ki [3]: 350 nM
